One assay addresses T1, ALK (Homo sapiens, UniProt Q9UM73).
T1 construct: purchased DiscoveRx (Fremont, CA)
In words: KinomeScan. It counts as binding. To be noted: read-out: % Control.

The next assay concerns the target T2, CAMK4 (Homo sapiens, UniProt Q16566).
T2 construct: purchased DiscoveRx (KinomeScan service)
In words: KinomeScan. The assay is classed as binding. To be noted: read-out: % Control.

The next assay addresses CDKL2 (Homo sapiens, UniProt Q92772). Put plainly: KinomeScan. The assay is classed as binding. The conditions noted are these: read-out: % Control.
A further assay concerns the target T3, EGFR(E746-A750del) (Homo sapiens, UniProt P00533, DEL746-750).
T3 construct: purchased DiscoveRx (Fremont, CA), KinomeScan service
Put plainly: KinomeScan. The assay is classed as binding. To be noted: read-out: % Control.

For the next assay, the target named is T4, EGFR(L747-T751del, Sins) (Homo sapiens, UniProt P00533, DEL747-750/T751S).
T4 construct: purchased DiscoveRx (Fremont, CA), KinomeScan service
T4 sequence (P00533 with tags, fused parts or gaps DEL747-750/T751S limits assumed): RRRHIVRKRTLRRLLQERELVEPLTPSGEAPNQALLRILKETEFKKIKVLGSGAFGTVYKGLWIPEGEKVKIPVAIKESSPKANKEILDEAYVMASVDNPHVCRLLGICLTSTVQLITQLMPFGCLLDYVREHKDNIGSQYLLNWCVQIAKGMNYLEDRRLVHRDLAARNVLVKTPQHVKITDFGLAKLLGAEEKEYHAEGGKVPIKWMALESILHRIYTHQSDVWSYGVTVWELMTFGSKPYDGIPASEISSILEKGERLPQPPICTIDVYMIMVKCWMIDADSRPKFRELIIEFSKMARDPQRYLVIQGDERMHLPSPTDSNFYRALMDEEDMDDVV
Put plainly: KinomeScan. To be noted: read-out: % Control. It counts as binding.

The next assay deals with T5, IRAK4 (Homo sapiens, UniProt Q9NWZ3).
T5 construct: purchased DiscoveRx (Fremont, CA)
T5 sequence (Q9NWZ3 whole entry): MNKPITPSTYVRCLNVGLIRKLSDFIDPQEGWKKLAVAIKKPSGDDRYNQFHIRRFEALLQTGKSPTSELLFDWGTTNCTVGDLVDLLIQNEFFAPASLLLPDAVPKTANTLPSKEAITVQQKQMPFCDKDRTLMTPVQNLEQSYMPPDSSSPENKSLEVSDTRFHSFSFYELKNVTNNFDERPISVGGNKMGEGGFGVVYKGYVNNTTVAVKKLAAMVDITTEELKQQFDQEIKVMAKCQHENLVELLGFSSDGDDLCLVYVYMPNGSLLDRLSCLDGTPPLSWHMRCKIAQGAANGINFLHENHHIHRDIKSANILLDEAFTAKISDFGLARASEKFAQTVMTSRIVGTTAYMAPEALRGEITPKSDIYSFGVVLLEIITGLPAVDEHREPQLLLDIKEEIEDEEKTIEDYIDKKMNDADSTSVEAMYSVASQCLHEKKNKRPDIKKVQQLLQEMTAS
Put plainly: KinomeScan. The assay is classed as binding. The conditions noted are these: read-out: % Control.

For a further assay, the target named is T6, LIMK1 (Homo sapiens, UniProt P53667).
T6 construct: purchased DiscoveRx
In words: KinomeScan. It counts as binding. To be noted: read-out: % Control.

In a further assay the target is T7, MEK6 (Homo sapiens, UniProt P52564).
T7 construct: purchased DiscoveRx (Fremont, CA)
In words: KinomeScan. It counts as binding. The conditions noted are these: read-out: % Control.

The target of a further assay is T8, PRKR (Homo sapiens, UniProt P19525).
T8 construct: purchased DiscoveRx (Fremont, CA)
In words: KinomeScan. The assay is classed as binding. To be noted: read-out: % Control.

Another assay concerns the target T9, RIOK3 (Homo sapiens, UniProt O14730).
T9 construct: purchased DiscoveRx (Fremont, CA)
Put plainly: KinomeScan. It counts as binding. The conditions noted are these: read-out: % Control.

For the next assay, the target named is T10, AT1 (Homo sapiens, UniProt P30556).
T10 construct: host or cells: Chem-1 cells with promiscuous Gα15
T10 sequence (P30556 whole entry): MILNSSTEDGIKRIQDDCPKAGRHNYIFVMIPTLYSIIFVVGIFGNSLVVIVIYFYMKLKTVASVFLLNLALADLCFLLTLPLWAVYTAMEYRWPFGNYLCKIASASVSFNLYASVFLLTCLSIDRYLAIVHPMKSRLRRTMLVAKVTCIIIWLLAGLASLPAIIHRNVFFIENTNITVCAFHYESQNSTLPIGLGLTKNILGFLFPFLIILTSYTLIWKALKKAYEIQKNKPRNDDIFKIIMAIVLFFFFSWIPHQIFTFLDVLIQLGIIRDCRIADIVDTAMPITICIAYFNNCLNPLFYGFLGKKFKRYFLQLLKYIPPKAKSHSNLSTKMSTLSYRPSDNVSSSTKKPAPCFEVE
Put plainly: GPCR Profiler. The assay is classed as cell-based.

The next assay concerns the target T11, CaS (Homo sapiens, UniProt P41180).
T11 construct: host or cells: Chem-1 cells with promiscuous Gα15
Put plainly: GPCR Profiler. It counts as cell-based.

The target in a further assay is T12, EP1 (Homo sapiens, UniProt P34995).
T12 construct: host or cells: Chem-1 cells expressing Gα15
T12 sequence (P34995 whole entry): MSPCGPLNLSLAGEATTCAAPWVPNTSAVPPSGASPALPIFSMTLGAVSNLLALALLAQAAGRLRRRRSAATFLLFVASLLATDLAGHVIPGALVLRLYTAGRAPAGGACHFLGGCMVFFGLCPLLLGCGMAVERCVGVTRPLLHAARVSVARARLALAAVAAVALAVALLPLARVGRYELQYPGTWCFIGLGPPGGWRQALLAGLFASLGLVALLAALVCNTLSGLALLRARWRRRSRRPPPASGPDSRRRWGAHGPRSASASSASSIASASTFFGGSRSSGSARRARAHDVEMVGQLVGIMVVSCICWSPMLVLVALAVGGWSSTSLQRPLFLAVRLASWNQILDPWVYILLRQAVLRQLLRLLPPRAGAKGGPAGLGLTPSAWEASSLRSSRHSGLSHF
Put plainly: GPCR Profiler. The assay is classed as cell-based.

The next assay concerns the target T13, NK3 (Homo sapiens, UniProt P29371).
T13 construct: host or cells: Chem-1 cells expressing Gα15
Put plainly: GPCR Profiler. The assay is classed as cell-based.

The next assay deals with T14, PAF (Homo sapiens, UniProt P25105).
T14 construct: host or cells: Chem-1 cells with Gα15
T14 sequence (P25105 whole entry): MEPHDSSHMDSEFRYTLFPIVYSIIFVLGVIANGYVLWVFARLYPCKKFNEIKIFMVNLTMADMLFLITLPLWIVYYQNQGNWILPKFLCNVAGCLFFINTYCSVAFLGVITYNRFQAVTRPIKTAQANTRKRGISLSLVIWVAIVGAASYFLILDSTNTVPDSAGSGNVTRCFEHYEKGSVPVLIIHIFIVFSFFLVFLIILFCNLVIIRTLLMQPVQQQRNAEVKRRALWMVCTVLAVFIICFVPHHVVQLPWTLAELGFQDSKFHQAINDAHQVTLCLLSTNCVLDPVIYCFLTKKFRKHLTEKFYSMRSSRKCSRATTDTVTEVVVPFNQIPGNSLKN
In words: GPCR Profiler. It counts as cell-based.

The next assay concerns 158 GPCRs. Put plainly: GPCR profiling panel (summary). It counts as cell-based. To be noted: 10 μM. As for the experimental part:
GPCR profiling assays were performed by Millipore (St. Louis, MO) using in cells expressing Gα15, a promiscuous G protein that enhances GPCR coupling to downstream Ca2+ signaling pathways. KinomeScan was conducted by DiscoveRx (Fremont, CA).
Since GPCRs represent >30% of targets for FDA-approved small molecules and are known to modulate cell migration, activity against 158 GPCRs was assessed based on their chemical structures. GPCRs (158) were tested for agonist and antagonist activity at 10 μM. […] Chemical segregation analysis of zebrafish phenotype was conducted to further identify the inhibitory activity responsible for the zebrafish phenotype. […] The identities of the R groups in Formula A are shown below in Table 5.
To identify the target of OGM1, the molecule was profiled for binding in a panel of 442 kinases (KinomeScan™, DiscoveRx™) and assessed its activity against 158 GPCRs in a single-point assay in Chem-1 cells that uses a promiscuous Gα15 protein to trigger calcium flux (see Table 9 and Table 10, below). […] Table 9. KinomeScan (DiscoverRx) profiling of OGM1.

Assay [1] has as its system U87. In words: GSH-Glo Glutathione Assay. The assay is classed as cell-based, human. To be noted: 2 μM OGM2 for 24 hours. How it is done: GSH-Glo™ Glutathione Assay (Promega™) was performed according to manufacturer protocol. Briefly, U87 cells were plated at 10,000 cells per well in a 96-well plate. The following day cells were treated with DMSO control vehicle or 2 μM OGM2 for 24 hours. Medium was removed from wells and 100 μl GSH-Glo™ Reagent was added to each well and incubated on a plate shaker for 30 minutes. One hundred microliters Luciferin Detection Reagent was added to each well and mixed briefly. After 15 minutes incubation, luminescence was detected on Promega™ GloMax luminometer.

Assay [2] concerns U87. In words: Immunogenic cell death markers (CRT externalization, ATP secretion). It counts as cell-based, human. As for the experimental part:
OGM2 treatment of […] increases makers of immunogenic cell death (ICD, such as release of ATP into the extracellular environment ([…]) and calreticulin (CRT) externalization (FIG. 94B and FIG. 94C). Extracellular ATP content was assessed using the Enliten Atp Assay System (PROMEGA) (FIG. 94A). Calreticulin (CRT) externalization 3- and 6-hours post-treatment (see FIG. 94B and FIG. 94C) in U87 cells was assessed using immunofluorescence analysis using polyclonal antibody against calreticulin (Invitrogen™). Immunogenic cell death (ICD) is defined by expression or release of damage-associated molecular patterns (DAMPs), including extracellular ATP release and calreticulin externalization, which stimulate antitumor immune response, which in turn contributes to long-lasting protective antitumor immunity. […]
For the CRT externalization assay, U87 cells were seeded on 96-well plate, then treated with DMSO, […] (DOX), […] and […] (shown as OGM in the figures). […] Cells labelled with CRT were counted automatically with Lionheart™ automated microscope and % of CRT+ cells calculated. […]
For the ATP secretion assay, U87 cells were seeded on 96-well plate, then treated with DMSO, […] (DOX), […] and […] (OGM). At 6 hours, extracellular ATP levels were measured using the ENLITEN ATP Assay (Promega™). […]

This note sets out measurements from patent US20240327364A1, “THERAPEUTIC TARGETING OF GPR68 TO INDUCE FERROPTOSIS” (University Of Maryland, Baltimore, priority 2023, published 2024).

T11 sequence (P41180 20-1078): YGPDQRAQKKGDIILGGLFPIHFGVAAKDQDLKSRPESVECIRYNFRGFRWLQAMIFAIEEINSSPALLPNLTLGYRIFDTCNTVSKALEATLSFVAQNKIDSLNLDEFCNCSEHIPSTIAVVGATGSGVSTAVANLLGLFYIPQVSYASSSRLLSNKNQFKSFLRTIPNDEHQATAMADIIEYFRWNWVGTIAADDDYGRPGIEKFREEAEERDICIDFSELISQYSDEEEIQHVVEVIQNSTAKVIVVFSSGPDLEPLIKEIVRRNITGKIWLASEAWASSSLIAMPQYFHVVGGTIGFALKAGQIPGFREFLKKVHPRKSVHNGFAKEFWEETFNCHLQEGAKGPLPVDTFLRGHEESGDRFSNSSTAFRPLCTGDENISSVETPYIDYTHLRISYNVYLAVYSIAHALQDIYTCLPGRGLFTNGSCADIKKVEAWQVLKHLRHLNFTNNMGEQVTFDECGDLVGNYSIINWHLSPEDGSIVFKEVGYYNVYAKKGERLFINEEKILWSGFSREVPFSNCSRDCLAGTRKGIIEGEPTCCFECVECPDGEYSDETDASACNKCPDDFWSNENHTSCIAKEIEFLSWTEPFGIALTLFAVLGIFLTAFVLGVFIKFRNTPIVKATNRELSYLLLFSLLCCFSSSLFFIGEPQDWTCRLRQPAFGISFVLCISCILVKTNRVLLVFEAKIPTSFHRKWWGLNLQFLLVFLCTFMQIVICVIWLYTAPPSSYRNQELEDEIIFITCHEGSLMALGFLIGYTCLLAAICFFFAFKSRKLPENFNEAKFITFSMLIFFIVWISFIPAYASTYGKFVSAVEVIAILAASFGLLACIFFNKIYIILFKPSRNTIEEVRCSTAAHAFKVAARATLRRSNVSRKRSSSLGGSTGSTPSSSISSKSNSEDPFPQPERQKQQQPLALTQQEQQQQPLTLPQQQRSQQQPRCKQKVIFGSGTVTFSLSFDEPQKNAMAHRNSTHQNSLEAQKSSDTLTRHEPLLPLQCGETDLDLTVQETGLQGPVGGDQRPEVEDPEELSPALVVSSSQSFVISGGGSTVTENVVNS
T13 sequence (P29371 whole entry): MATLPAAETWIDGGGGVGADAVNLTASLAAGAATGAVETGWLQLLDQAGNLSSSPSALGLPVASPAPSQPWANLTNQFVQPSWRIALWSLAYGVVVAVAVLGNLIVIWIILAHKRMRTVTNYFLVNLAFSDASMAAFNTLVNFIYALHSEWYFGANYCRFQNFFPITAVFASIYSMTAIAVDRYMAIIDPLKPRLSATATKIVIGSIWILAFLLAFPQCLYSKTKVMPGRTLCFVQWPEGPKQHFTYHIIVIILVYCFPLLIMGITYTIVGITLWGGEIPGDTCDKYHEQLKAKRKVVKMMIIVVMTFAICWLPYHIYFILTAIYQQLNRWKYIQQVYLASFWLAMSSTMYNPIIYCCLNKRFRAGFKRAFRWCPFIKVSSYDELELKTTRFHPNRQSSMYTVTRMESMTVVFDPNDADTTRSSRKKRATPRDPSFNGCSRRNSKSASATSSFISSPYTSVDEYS
T1 sequence (Q9UM73 19-1620): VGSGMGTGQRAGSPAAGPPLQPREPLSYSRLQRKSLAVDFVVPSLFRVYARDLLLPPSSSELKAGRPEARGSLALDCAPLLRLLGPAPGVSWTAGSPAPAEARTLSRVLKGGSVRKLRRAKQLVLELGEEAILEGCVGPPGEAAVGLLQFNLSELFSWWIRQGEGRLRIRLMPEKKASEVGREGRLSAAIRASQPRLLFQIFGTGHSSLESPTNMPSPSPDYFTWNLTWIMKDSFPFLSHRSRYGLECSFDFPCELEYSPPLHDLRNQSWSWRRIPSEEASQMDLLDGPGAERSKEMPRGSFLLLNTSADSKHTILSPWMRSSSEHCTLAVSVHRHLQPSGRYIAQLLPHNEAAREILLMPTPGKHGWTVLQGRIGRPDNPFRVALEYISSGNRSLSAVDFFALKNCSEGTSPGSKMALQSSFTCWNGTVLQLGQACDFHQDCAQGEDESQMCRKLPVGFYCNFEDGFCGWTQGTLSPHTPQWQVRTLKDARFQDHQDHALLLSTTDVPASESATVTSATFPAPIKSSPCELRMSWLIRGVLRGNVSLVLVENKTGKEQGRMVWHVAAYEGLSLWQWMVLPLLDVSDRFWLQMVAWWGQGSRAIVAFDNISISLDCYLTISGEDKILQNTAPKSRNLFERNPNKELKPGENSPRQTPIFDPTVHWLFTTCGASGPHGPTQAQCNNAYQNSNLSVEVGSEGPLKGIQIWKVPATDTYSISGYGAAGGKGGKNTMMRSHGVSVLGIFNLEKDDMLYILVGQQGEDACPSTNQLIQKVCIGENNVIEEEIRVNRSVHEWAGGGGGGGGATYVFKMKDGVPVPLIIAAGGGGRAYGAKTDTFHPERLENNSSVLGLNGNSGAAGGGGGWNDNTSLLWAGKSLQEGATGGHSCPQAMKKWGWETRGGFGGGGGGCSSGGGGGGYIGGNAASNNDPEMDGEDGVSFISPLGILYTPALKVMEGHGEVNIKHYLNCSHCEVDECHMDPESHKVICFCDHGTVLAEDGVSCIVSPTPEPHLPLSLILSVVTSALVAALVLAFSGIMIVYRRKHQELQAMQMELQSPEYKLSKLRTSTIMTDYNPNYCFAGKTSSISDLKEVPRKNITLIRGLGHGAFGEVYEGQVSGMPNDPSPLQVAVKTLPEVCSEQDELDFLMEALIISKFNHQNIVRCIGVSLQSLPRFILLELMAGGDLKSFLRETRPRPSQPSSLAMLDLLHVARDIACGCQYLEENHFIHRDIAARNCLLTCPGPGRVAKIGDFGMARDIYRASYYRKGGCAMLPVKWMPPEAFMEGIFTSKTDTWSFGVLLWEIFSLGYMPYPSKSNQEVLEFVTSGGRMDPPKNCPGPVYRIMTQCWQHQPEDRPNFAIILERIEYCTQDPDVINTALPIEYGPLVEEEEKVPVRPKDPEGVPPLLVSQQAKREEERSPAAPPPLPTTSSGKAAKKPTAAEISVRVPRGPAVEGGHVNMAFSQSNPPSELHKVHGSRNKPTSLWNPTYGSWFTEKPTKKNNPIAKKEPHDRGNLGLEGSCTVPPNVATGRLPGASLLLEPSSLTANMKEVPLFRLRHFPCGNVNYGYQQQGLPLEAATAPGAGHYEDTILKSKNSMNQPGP

Turning to `CCc1ccc2c(c1)C1(NN=C(c3cccc4ccccc34)S1)C(=O)N2` (stereo not drawn) [OGM1, 5-ethyl-5′-naphthalen-1-ylspiro[1H-indole-3,2′-3H-1,3,4-thiadiazole]-2-one], the remaining binding at 10 µM on ALK worked out at 100%; at CAMK4, 100%; on CDKL2 it was 100%; at EGFR(E746-A750del), 100%; on EGFR(L747-T751del, Sins), 100%; at IRAK4 it was 88%. The remaining binding at 10 µM came to 100% at LIMK1, 76% at MEK6, 59% on PRKR and 100% at RIOK3. The Antagonism at AT1 (10 uM) was −0.7; at CaS (10 uM), −3.6; on EP1 (10 uM) it was −6; on NK3 (10 uM), −3; on PAF (10 uM) it was 6.6. Moreover, the Agonism at AT1 (12.5 uM) is reported as −0.4; at CaS (12.5 uM) it was −1.2; at EP1 (12.5 uM), 0.2; at NK3 (12.5 uM) it was 0.5; at PAF (12.5 uM) it was 0.4. Further, the GPCRs significantly inhibited entry with 158 GPCRs is “significantly inhibited only the lysophosphatidic acid receptor 1 (LPAR1), and extracellular proton-sensing GPR68/OGR1”.
For `CCc1ccc2c(c1)C1(NN=C(c3ccccc3)S1)C(=O)N2` (stereo not drawn) [OGM2], the glutathione levels entry in the assay on U87 [1] is on record as “dramatically reduced glutathione levels”. Moreover, the “externalization of CRT” value with U87 [2] (3 hours of treatment) was “significant externalization of CRT”. In the assay on U87 [2] (6 hours), the “secretion of ATP” value is “secretion of ATP”.
